# According to publication PMC4071299 (Toxicology Reports, 2014):
# Like-named read-outs stand apart in the source and are kept apart here.
# Tests used:
# [1] = 20 mg/kg, male F-344 rats; cited from earlier work
# [2] = system: MtT/E-2 cells; details: lower extent than bisphenol A; cited from earlier work
# [3] = Disposition and elimination of [14C]-radioactivity after single oral; type: in vivo, female Crl:WI(Han) rats
# [4] = Plasma toxicokinetics of free TBBPA after oral or IV administration; type: in vivo, female Crl:WI(Han) rats; details: for AUC: free TBBPA in plasma; for half-life: iv, 25 mg/kg
# [5] = system: MCF-7 cells; details: cited from earlier work
# [6] = male SD rats, cited from earlier work; for Cmax: read-out: plasma Cmax
# [7] = Disposition of [14C]-radioactivity after IV administration of TBBPA; type: in vivo, female Crl:WI(Han) rats; details: IV 25 mg/kg
# [8] = system: rat thyroid hormone receptor; details: cited from earlier work
# [9] = system: progesterone receptor (PR); details: transfected yeast; cited from earlier work
# [10] = Elimination and distribution after repeated oral administration; type: in vivo, female Crl:WI(Han) rats; details: […] mg/kg for 5 days
# [11] = system: estradiol sulfation; details: in vitro; cited from earlier work
# [12] = system: rats; details: single dose by gavage to rats; cited from earlier work
# [13] = system: rats; details: cited from earlier work
# [14] = system: human transthyretin; details: cited from earlier work
# [15] = system: TTR; details: cited from earlier work
# [16] = Biliary elimination in bile-duct cannulated rats after oral dose; type: in vivo, female Crl:WI(Han) rats; details: oral […] mg/kg, 6 h
# [17] = system: estrogen sulfotransferase SULT1E1; details: crystallographic studies; cited from earlier work
compound,measurement,setting,value
"CC(C)(c1cc(Br)c(O)c(Br)c1)c1cc(Br)c(O)c(Br)c1 [TBBPA, 2,2′,6,6′-Tetrabromo-4,4′-isopropylidene diphenol]",systemic bioavailability,[1],1.6%
same,cell proliferation,[2],enhanced proliferation
same,dose recovery in feces in 72 h,[3]; oral 25 mg/kg,95.7 ± 3.5%
same,dose recovery in feces in 72 h,[3]; oral 1000 mg/kg,98.8 ± 2.2%
same,dose recovered in urine,"[3]; oral 25, 250 or 1000 mg/kg, 72 h",0.2–2 % of dose
same,dose recovery in feces in 72 h,[3]; oral […] mg/kg,94.3 ± 3.6%
same,radioactivity in tissues at 24 h,[3]; oral […] mg/kg,< 2%
same,"[14C]-radioactivity, blood","[3]; oral […] mg/kg, 1 h",0.6 ± 0.2 % dose
same,"[14C]-radioactivity, blood","[3]; oral […] mg/kg, 3 h",0.4 ± 0.2 % dose
same,"[14C]-radioactivity, feces","[3]; oral […] mg/kg, 6 h",0.1 ± 0.1 % dose
same,"[14C]-radioactivity, urine","[3]; oral […] mg/kg, 6 h",1.2 ± 0.7 % dose
same,"[14C]-radioactivity, blood","[3]; oral […] mg/kg, 24 h",0.06 ± 0.05 % dose
same,"[14C]-radioactivity, feces","[3]; oral […] mg/kg, 24 h",82 ± 18 % dose
same,"[14C]-radioactivity, large intestine","[3]; oral […] mg/kg, 24 h",0.3 ± 0.1 % dose
same,"[14C]-radioactivity, urine","[3]; oral […] mg/kg, 24 h",0.3 ± 0.1 % dose
same,administered [14C]-radioactivity detected in tissues,[3]; tissues collected at 72 h following oral doses,< 0.1%
same,administered radioactivity remaining in plasma,"[4]; IV 25 mg/kg, 6 h post dose",~2%
same,AUC,[4]; IV (25 mg/kg),4286 nmol·min/mL
same,AUC,[4]; Oral ([…] mg/kg),1729 nmol·min/mL
same,half-life,"[4]; female, Crl:WI(Han), rat, plasma, distribution half-life, IV 25 mg/kg, two-compartment model",2 min
same,half-life,"[4]; female, Crl:WI(Han), rat, plasma, terminal half-life, IV 25 mg/kg, non-compartmental analyses",133 min
same,half-life,"[4]; female, Crl:WI(Han), rat, plasma, terminal half-life, IV 25 mg/kg, two-compartment model",22 min
same,Cmax,"[4]; female, Crl:WI(Han), rat, plasma, po, 250 mg/kg",5.4 µM
same,estrogenic activity,[5],estrogenic activity
same,Tmax,"[6]; oral 200, 500 and 1000 mg/kg",252 to 300 min
same,Cmax,[6]; 300 mg/kg,103 µM
same,Cmax,[6]; oral 200 mg/kg,23 µM
same,Cmax,[6]; oral 500 mg/kg,34 µM
same,Cmax,[6]; oral 1000 mg/kg,57 µM
same,administered radioactivity eliminated in feces within 6 h,[7],Approx. 10%
same,administered radioactivity eliminated in urine within 6 h,[7],~1%
same,dose recovered in contents of large intestine,[7]; 6 h post dose,~61%
same,dose recovered in contents of small intestine,[7]; 6 h post dose,approx. 15%
same,"[14C]-radioactivity, all other tissues",[7]; 6 h post-dose,less than 1 % of the administered dose
same,"[14C]-radioactivity, adipose",[7]; 6 h post-dosing,1 ± 0.8%
same,"[14C]-radioactivity, large intestine",[7]; 6 h post-dosing,3.2 ± 3%
same,"[14C]-radioactivity, liver",[7]; 6 h post-dosing,1.8 ± 0.6%
same,"[14C]-radioactivity, small intestine",[7]; 6 h post-dosing,3.2 ± 3.1%
same,binding to thyroid hormone receptor,[8],high affinity
same,PR activity,[9],antagonist
same,terminal dose recovered from feces,[10]; 24 h after final ([14C]) dose,84 ± 8%
same,dose recovered in urine,[10]; 24 h after final dose,Less than 1%
same,tissue retention,[10]; 24 h after final dose,minimal
same,effect on estradiol sulfation,[11],inhibitor
same,LD50,[12],greater than 5 g/kg
same,toxicity after intraperitoneal administration,[13],hepatotoxicity and heme metabolism disturbances
same,binding to transthyretin,[14],bind
same,TTR binding,[15],T4 competitor
same,"[14C]-radioactivity, bile",[16],6 ± 7 % dose
same,binding to SULT1E1,[17],high affinity
"COC(C)(C)c1cc(Br)c(O)c(Br)c1 [2,6-dibromo-4-[2-methoxypropane-2-yl]-phenol]",estrogenic activity,[5],estrogenic activity
"CC(C)(O)c1cc(Br)c(O)c(Br)c1 [2,6-dibromo-4-[2-hydroxypropane-2-yl]-phenol]",estrogenic activity,[5],estrogenic activity
